Data reported in US8426437B2, “Pyrroloquinoline derivatives and their use as protein kinases inhibitors” (Pierre Fabre Medicament, priority 2005, dated 2013).
Counter-ions that a name gives are not always drawn.

Legend:
Assay type in all cases: biochemical
RET = biological target: T1, RET (Homo sapiens, UniProt P07949); experiment: Inhibition of RET kinase activity, recombinant RET method (Kinase-Glo); conditions: RET 2 μg/ml, poly-EY4 substrate, 20 μM ATP, two hours at 30° C.
T1 construct: purchased Upstate 14-570MG
T1 sequence (P07949 29-1114): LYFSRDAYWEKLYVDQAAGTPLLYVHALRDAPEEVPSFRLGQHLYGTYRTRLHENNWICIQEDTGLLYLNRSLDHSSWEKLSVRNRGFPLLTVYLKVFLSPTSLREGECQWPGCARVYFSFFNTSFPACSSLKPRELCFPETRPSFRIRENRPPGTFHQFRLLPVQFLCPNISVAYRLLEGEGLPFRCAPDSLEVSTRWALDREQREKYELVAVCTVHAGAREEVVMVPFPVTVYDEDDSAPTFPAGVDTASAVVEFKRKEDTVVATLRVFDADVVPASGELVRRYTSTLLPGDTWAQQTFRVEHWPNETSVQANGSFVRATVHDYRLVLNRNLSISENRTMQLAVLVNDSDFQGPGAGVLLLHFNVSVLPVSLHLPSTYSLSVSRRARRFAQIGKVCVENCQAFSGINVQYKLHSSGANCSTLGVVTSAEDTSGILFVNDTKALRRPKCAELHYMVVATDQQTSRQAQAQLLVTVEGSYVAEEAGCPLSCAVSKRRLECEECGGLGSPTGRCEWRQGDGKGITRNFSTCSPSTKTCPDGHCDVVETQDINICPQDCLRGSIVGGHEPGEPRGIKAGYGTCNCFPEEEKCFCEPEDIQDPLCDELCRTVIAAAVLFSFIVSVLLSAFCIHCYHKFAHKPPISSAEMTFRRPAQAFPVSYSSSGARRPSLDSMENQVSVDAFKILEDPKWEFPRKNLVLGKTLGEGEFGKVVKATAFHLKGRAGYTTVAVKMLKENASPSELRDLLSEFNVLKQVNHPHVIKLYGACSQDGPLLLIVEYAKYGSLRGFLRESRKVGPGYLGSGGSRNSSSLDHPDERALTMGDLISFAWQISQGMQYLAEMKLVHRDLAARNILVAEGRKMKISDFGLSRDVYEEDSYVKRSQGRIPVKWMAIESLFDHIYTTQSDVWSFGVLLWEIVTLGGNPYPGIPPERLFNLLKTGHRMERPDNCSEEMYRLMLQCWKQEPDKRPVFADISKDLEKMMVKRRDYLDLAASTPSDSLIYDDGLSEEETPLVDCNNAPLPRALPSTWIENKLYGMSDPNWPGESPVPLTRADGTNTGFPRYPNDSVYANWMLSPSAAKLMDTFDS
Method in brief: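 Recombinant RET at 2 μg/ml in 20 mM MOPS/NaOH pH 7.0, 1 mM EDTA, 5% glycerol, 0.01% Brij35, 0.1% 2-mercaptoethanol, 1 mg/ml BSA; compounds 10 nM–30 μM final.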

TrkA = biological target: T2, TrkA (Homo sapiens, UniProt P04629); experiment: Inhibition of kinase TrkA (Kinase-Glo); conditions: TrkA 4 μg/ml, 30 μM ATP, two hours at 30° C.
T2 construct: purchased Upstate 14-571
T2 sequence (P04629 33-796): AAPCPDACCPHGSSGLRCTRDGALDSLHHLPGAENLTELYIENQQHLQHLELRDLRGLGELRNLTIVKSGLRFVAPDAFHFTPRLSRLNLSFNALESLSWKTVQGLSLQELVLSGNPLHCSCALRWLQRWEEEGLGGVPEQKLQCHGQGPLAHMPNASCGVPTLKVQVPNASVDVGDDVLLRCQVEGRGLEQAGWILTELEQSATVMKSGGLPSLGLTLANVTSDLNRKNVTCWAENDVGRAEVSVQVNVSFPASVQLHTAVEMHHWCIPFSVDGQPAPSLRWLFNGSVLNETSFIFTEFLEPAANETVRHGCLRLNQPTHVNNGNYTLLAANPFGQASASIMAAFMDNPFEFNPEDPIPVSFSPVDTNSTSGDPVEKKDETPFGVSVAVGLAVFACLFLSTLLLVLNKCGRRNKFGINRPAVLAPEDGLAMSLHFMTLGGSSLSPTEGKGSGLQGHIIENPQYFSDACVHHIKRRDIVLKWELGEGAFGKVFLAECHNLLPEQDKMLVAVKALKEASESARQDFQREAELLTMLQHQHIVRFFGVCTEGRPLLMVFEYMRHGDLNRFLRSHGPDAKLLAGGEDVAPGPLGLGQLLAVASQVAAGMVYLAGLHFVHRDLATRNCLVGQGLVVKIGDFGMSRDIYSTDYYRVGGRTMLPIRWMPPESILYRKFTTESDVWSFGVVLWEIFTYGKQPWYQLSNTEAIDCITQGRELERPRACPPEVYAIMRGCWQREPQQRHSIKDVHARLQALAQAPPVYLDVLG
Experimental: Protein TrkA (Upstate 14-571; batch #25634U) is incubated at a concentration of 4 μg/ml in a buffer containing 8 mM of MOPS/NaOH pH7, 0.2 mM EDTA, 40 mM MgAc (Sigma #229768), 1 mM DTT (Fluka #43816), NaOV 1 mM, 0.01% Triton Tx100, in the presence of 1 mg/ml of peptide substrate poly-EY (Upstate #P0275), and 30 μM of ATP.
The dilution buffer for TrkA is as follows: 20 mM MOPS/NaOH pH7, 1 mM EDTA, 5% glycerol, 0.01% Brij35, 0.1% 2-mercapto, 1 mg/ml BSA.
(§1) The compound to be tested is first added to the enzyme to give a reaction volume of 50 μl. The dilution of the compounds of the invention is distributed so as to obtain a scale of final concentrations between 10 nM and 30 μM.
(§2) After incubation of the reaction mixture for two hours at 30° C., the level of ATP that remains is assayed using the Kinase-Glo Luminescent Kinase Assay (Promega #V6712) according to the conditions recommended by the supplier. The luminescence induced is read in a plate reader (Envision-Perkin Elmer).

TrkB = biological target: T3, TrkB (Homo sapiens, UniProt Q16620); experiment: Inhibition of kinase TrkB (Kinase-Glo); conditions: TrkB 4 μg/ml, 40 μM ATP, two hours at 30° C.
T3 construct: purchased Upstate 14-507
T3 sequence (Q16620 32-822): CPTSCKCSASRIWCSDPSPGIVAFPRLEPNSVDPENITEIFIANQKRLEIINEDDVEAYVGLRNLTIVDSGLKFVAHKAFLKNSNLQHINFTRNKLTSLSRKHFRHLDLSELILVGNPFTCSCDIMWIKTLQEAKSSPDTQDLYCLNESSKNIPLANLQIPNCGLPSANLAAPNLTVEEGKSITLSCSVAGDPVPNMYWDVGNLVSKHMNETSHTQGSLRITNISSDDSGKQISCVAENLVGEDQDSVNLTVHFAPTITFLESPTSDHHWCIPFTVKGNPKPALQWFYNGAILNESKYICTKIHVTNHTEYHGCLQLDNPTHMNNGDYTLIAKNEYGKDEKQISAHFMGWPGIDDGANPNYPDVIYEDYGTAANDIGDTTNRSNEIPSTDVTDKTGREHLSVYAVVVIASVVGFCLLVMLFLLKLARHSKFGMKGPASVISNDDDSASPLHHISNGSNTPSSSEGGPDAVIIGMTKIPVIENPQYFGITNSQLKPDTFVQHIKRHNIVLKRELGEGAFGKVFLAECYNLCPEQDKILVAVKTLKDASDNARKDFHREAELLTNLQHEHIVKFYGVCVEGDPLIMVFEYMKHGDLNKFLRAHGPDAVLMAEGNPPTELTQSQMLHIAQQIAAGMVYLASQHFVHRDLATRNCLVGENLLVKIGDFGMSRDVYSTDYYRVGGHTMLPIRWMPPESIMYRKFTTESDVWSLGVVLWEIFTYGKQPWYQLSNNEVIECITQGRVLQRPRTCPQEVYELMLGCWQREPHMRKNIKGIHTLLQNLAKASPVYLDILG
Experimental: Protein TrkB (Upstate 14-507; batch #25578U) is incubated at a concentration of 4 μg/ml in a buffer containing 8 mM of MOPS/NaOH pH7, 0.2 mM EDTA, 40 mM MgAc (Sigma #229768), 1 mM DTT (Fluka #43816), NaOV 1 mM, 25 mM 2-glycerolphosphate (Sigma #G9891), in the presence of 2.5 mg/ml of peptide substrate poly-EY (Upstate #P0275), and 40 μM of ATP.
The dilution buffer for TrkB is as follows: 20 mM MOPS/NaOH pH7, 1 mM EDTA, 5% glycerol, 0.01% Brij35, 0.1% 2-mercapto, 1 mg/ml BSA.
as §1, §2

PIM-1 = biological target: T4, PIM-1 (Homo sapiens, UniProt P11309); experiment: Inhibition of kinase PIM-1 (Kinase-Glo); conditions: PIM-1 0.625 μg/ml, 10 μM ATP, forty minutes at 30° C.
T4 construct: purchased Upstate 14-573
T4 sequence (P11309 whole entry): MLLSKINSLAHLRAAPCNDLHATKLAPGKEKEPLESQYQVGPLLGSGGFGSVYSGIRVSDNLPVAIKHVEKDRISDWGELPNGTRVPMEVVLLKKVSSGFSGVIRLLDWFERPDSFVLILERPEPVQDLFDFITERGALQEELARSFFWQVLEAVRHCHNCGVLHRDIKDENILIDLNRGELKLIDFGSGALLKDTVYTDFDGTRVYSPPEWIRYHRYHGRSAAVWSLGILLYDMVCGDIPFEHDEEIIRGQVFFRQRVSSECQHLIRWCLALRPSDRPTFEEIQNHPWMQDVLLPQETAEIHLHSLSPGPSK
Experimental: Protein PIM-1 (Upstate #14-573 batch 25864U) is incubated at a concentration of 0.625 μg/ml in a buffer containing 8 mM of MOPS/NaOH pH7, 0.2 mM EDTA, 5 mM MgAc (Sigma #229768), 0.01% Triton Tx100, in the presence of 70 μM of peptide substrate S6 Kinase/Rsk2 (Upstate #12-243), and 10 μM of ATP.
The dilution buffer for PIM-1 is as follows: 20 mM MOPS/NaOH pH7, 1 mM EDTA, 5% glycerol, 0.01% Brij35, 0.1% 2-mercapto, 1 mg/ml BSA
as §1
as §2, with “forty minutes” for “two hours”

Row | Compound | IC50 (RET) [nM] | IC50 (TrkA) [nM] | IC50 (TrkB) [nM] | IC50 (PIM-1) [nM]
1 | CCOC(=O)c1c[nH]c2c(=O)[nH]c3ccc(-c4ccnc(Nc5ccccc5)n4)cc3c12 [Compound 266, 4-Oxo-8-(2-phenylamino-pyrimidin-4-yl)-4,5-dihydro-3H-pyrrolo[2,3-c]quinoline-1-ethyl carboxylate] | 1000 to 10000 | 1000 to 10000 | 1000 to 10000 | 
2 | CCOC(=O)c1c[nH]c2c(=O)[nH]c3ccc(NS(=O)(=O)c4ccc(C(C)(C)C)cc4)cc3c12 [Compound 49, 8-(4-tert-Butyl-benzenesulfonylamino)-4-oxo-4,5-dihydro-3H-pyrrolo[2,3-c]quinoline-1-ethyl carboxylate] | 10000 to 100000 | 10000 to 100000 | 1000 to 10000 | 
3 | CCOC(=O)c1c[nH]c2c(=O)[nH]c3ccc(NS(=O)(=O)c4cccs4)cc3c12 [Compound 56, 4-Oxo-8-(thiophene-2-sulfonylamino)-4,5-dihydro-3H-pyrrolo[2,3-c]quinoline-1-ethyl carboxylate] | 100 to 1000 | 1000 to 10000 | 1000 to 10000 | 
4 | CCOC(=O)c1c[nH]c2c(=O)[nH]c3ccc(I)cc3c12 [Compound 209, 8-Iodo-4-oxo-4,5-dihydro-3H-pyrrolo[2,3-c]quinoline-1-ethyl carboxylate] | 100 to 1000 |  |  | 100 to 1000
5 | CCOC(=O)c1c[nH]c2c(=O)[nH]c3ccc(NC)cc3c12 [Compound 63, 8-Methylamino-4-oxo-4,5-dihydro-3H-pyrrolo[2,3-c]quinoline-1-ethyl carboxylate hydrochloride] | 1000 to 10000 |  |  | 10000 to 100000
6 | CCOC(=O)c1c[nH]c2c(=O)[nH]c3ccc(N(C)S(=O)(=O)c4ccccc4)cc3c12 [Compound 58, 8-(Benzenesulfonyl-methyl-amino)-4-oxo-4,5-dihydro-3H-pyrrolo[2,3-c]quinoline-1-ethyl carboxylate] | 100 to 1000 | 1000 to 10000 | 1000 to 10000 | 
7 | CCOC(=O)c1c[nH]c2c(=O)[nH]c3ccc(S(=O)(=O)N(C)c4cccc(Cl)c4)cc3c12 [Compound 34, 8-[(3-Chlorophenyl)-methyl-sulfamoyl)-4-oxo-4,5-dihydro-3H-pyrrolo[2,3-c]quinoline-1-ethyl carboxylate] | 100 to 1000 |  |  | 1000 to 10000
8 | COC(=O)c1c[nH]c2c(=O)[nH]c3ccc(S(=O)(=O)N4CCN(C)CC4)cc3c12 [Compound 95, 8-(4-Methyl-piperazine-1-sulfonyl)-4-oxo-4,5-dihydro-3H-pyrrolo[2,3-c]quinoline-1-methyl carboxylate] | 1000 to 10000 |  |  | 10000 to 100000
9 | CCOC(=O)c1c[nH]c2c(=O)[nH]c3ccc(-c4csc(N)n4)cc3c12 [Compound 270, 8-(2-Amino-thiazol-4-yl)-4-oxo-4,5-dihydro-3H-pyrrolo[2,3-c]quinoline-1-ethyl carboxylate] | 100 to 1000 |  |  | 10000 to 100000
10 | CCOC(=O)c1c[nH]c2c(=O)[nH]c3ccc(NS(=O)(=O)c4ccccc4F)cc3c12 [Compound 45, 8-(2-Fluoro-benzenesulfonylamino)-4-oxo-4,5-dihydro-3H-pyrrolo[2,3-c]quinoline-1-ethyl carboxylate] | 1000 to 10000 | 1000 to 10000 | 1000 to 10000 | 
11 | CCOC(=O)c1c[nH]c2c(=O)[nH]c3ccc(NS(=O)(=O)c4cccc(F)c4)cc3c12 [Compound 44, 8-(3-Fluoro-benzenesulfonylamino)-4-oxo-4,5-dihydro-3H-pyrrolo[2,3-c]quinoline-1-ethyl carboxylate] | 100 to 1000 | 1000 to 10000 | 1000 to 10000 | 
12 | CCOC(=O)c1c[nH]c2c(=O)[nH]c3ccc(-c4cccc(N)c4)cc3c12 [Compound 234, Trifluoroacetate of 8-(3-aminophenyl)-4-oxo-4,5-dihydro-3H-pyrrolo[2,3-c]quinoline-1-ethyl carboxylate] | 100 to 1000 | 1000 to 10000 | 1000 to 10000 | 
13 | CN(C)CCNC(=O)c1c[nH]c2c(=O)[nH]c3ccccc3c12 [Compound 79, N-(2-Dimethylamino-ethyl)-4-oxo-4,5-dihydro-3H-pyrrolo[2,3-c]quinoline-1-carboxamide] | 10000 to 100000 |  |  | 10000 to 100000
14 | CCOC(=O)c1c[nH]c2c(=O)[nH]c3ccc(Br)cc3c12 [Compound 71, 8-Bromo-4-oxo-4,5-dihydro-3H-pyrrolo[2,3-c]quinoline-1-ethyl carboxylate] | 100 to 1000 |  |  | 1000 to 10000
15 | CCOC(=O)c1c[nH]c2c(=O)[nH]c3ccc(-c4ccnc(Nc5nc6ccccc6[nH]5)n4)cc3c12 [Compound 267, 8-[2-(1H-Benzoimidazol-2-ylamino)-pyrimidin-4-yl]-4-oxo-4,5-dihydro-3H-pyrrolo[2,3-c]quinoline-1-ethyl carboxylate] | 1000 to 10000 | 10000 to 100000 | 10000 to 100000 | 

Continued, values first:

Row | IC50 (RET) [nM] | IC50 (TrkA) [nM] | IC50 (TrkB) [nM] | IC50 (PIM-1) [nM] | Compound
16 | < 100 | 1000 to 10000 | 1000 to 10000 |  | CCOC(=O)c1c[nH]c2c(=O)[nH]c3ccc(S(=O)(=O)Nc4ccccc4)cc3c12 [Compound 2, 4-Oxo-8-phenylsulfamoyl-4,5-dihydro-3H-pyrrolo[2,3-c]quinoline-1-ethyl carboxylate]
17 | 100 to 1000 | 10000 to 100000 | 10000 to 100000 |  | CCOC(=O)c1c[nH]c2c(=O)[nH]c3ccc(S(=O)(=O)Nc4cccc(OC)c4)cc3c12 [Compound 8, 8-(3-Methoxy-phenylsulfamoyl)-4-oxo-4,5-dihydro-3H-pyrrolo[2,3-c]quinoline-1-ethyl carboxylate]
18 | 100 to 1000 | 1000 to 10000 | 1000 to 10000 |  | CCOC(=O)c1c[nH]c2c(=O)[nH]c3ccc(NS(=O)(=O)c4ccc(F)cc4)cc3c12 [Compound 43, 8-(4-Fluoro-benzenesulfonylamino)-4-oxo-4,5-dihydro-3H-pyrrolo[2,3-c]quinoline-1-ethyl carboxylate]
19 | 100 to 1000 |  |  | 1000 to 10000 | CCOC(=O)c1c[nH]c2c(=O)[nH]c3ccc(-c4csc(C5CCNCC5)n4)cc3c12 [Compound 277, 4-Oxo-8-(2-piperidin-4-yl-thiazol-4-yl)-4,5-dihydro-3H-pyrrolo[2,3-c]quinoline-1-ethyl carboxylate]
20 | 1000 to 10000 |  |  | 1000 to 10000 | CCOC(=O)c1c[nH]c2c(=O)[nH]c3ccc(S(=O)(=O)NCC4CCNCC4)cc3c12 [Compound 121, 4-Oxo-8-[(piperidin-4-ylmethyl)-sulfamoyl]-4,5-dihydro-3H-pyrrolo[2,3-c]quinoline-1-ethyl carboxylate]
21 | 1000 to 10000 | 1000 to 10000 | 1000 to 10000 |  | COC(=O)c1c[nH]c2c(=O)[nH]c3ccc(S(=O)(=O)NC4CCCCC4)cc3c12 [Compound 111, 8-Cyclohexylsulfamoyl-4-oxo-4,5-dihydro-3H-pyrrolo[2,3-c]quinoline-1-methyl carboxylate]
22 | 1000 to 10000 |  |  | 1000 to 10000 | CCOC(=O)c1c[nH]c2c(=O)[nH]c3ccc([N+](=O)[O-])cc3c12 [Compound 66, 8-Nitro-4-oxo-4,5-dihydro-3H-pyrrolo[2,3-c]quinoline-1-ethyl carboxy late]
23 | 100 to 1000 | 10000 to 100000 | 10000 to 100000 |  | CCOC(=O)c1c[nH]c2c(=O)[nH]c3ccc(S(=O)(=O)Nc4ccc(C)cc4)cc3c12 [Compound 6, 4-Oxo-8-p-tolylsulfamoyl-4,5-dihydro-3H-pyrrolo[2,3-c]quinoline-1-ethyl carboxylate]
24 | 100 to 1000 |  |  | 1000 to 10000 | CCOC(=O)c1c[nH]c2c(=O)[nH]c3ccc(SC4CCCCC4)cc3c12 [Compound 221, 8-Cyclohexylsulfanyl-4-oxo-4,5-dihydro-3H-pyrrolo[2,3-c]quinoline-1-ethyl carboxylate]
